# From US10913710B2, “Benzene disulfonamide for the treatment of cancer” (priority 2017, dated 2021)
# Target: PDEδ (Homo sapiens (Human), UniProt O43924)
# Experiment: Fluorescence polarization competition binding assay: displacement titration of labeled Atorvastatin probe for KD
# Settings: not given
# Procedure: Example D.2: Displacement Titrations of Labeled Atorvastatin-Probe for the Determination of KD Values
# Displacement Titrations of Labeled Atorvastatin-Probe for the Determination of KD Values:
# The purification was followed by size exclusion gel filtration on a Superdex 75 S26/60 column using buffer A (25 mM Tris-HCl, pH 7.5, 150 mM NaCl and 3 mM DTE).
row,Compound,Kd [nM]
1,CC(C)(C)[Si](C)(C)Oc1ccc(CNS(=O)(=O)c2ccc(S(=O)(=O)N(Cc3ccc(Cl)cc3)C3CCCC3)cc2)cc1 [Compound 15],30 to 100

# Same assay, conditions: fluorescence polarization assay; activity classes; read-out: KD
row,Compound,Kd [nM]
1,O=S(=O)(c1ccc(S(=O)(=O)N(Cc2ccccn2)C2CCCO2)cc1)N(Cc1ccccn1)C1CCCO1 (stereo not shown) [Compound 1],100 to 1000
2,"Nc1ccc(Br)c(CN(CC2CCNCC2)S(=O)(=O)c2ccc(S(=O)(=O)N(Cc3ccc(Cl)cc3)C3CCCC3)cc2)c1 [Compound 2, N1-(5-amino-2-bromobenzyl)-N4-(4-chlorobenzyl)-N4-cyclopentyl-N1-(piperidin-4-ylmethyl)benzene-1,4-disulfonamide]",100 to 1000
3,CC(C)(C)OC(=O)N1CCC(CN(Cc2ccccc2)S(=O)(=O)c2ccc(S(=O)(=O)NC3CCCC3)cc2)CC1 [Compound 3],> 1000
4,"CC(C)(C)OC(=O)N1CCC(CN(Cc2ccccc2)S(=O)(=O)c2ccc(S(=O)(=O)N(Cc3cc(Br)cc(Br)c3)C3CCCC3)cc2)CC1 [Compound 4, tert-butyl 4-(((N-benzyl-4-(N-cyclopentyl-N-(3,5-dibromobenzyl)sulfamoyl)phenyl)sulfonamido)methyl)piperidine-1-carboxylate]",100 to 1000
5,"CNc1ncc(Br)c(CN(CC2CCCCC2)S(=O)(=O)c2ccc(S(=O)(=O)N(Cc3ccc(Cl)cc3)C3CCCC3)cc2)n1 [Compound 5, N1-((5-bromo-2-(methylamino)pyrimidin-4-yl)methyl)-N4-(4-chlorobenzyl)-N1-(cyclohexylmethyl)-N4-cyclopentylbenzene-1,4-disulfonamide]",30 to 100
6,"CN1CCC(CN(Cc2ccccc2)S(=O)(=O)c2ccc(S(=O)(=O)N(Cc3ccc(Cl)cc3)C3CCCC3)cc2)CC1 [Compound 6, N1-benzyl-N4-(4-chlorobenzyl)-N4-cyclopentyl-N1-((1-methylpiperidin-4-yl)methyl)benzene-1,4-disulfonamide]",1 to 30
7,O=S(=O)(NCC1CCCCC1)c1ccc(S(=O)(=O)N(Cc2ccc(Cl)cc2)C2CCCC2)cc1 [Compound 8],30 to 100
8,"O=S(=O)(c1ccc(S(=O)(=O)N(Cc2ccc(Cl)cc2)C2CCCC2)cc1)N(Cc1ccccc1)CC1CCCCC1 [Compound 9, N1-benzyl-N4-(4-chlorobenzyl)-N1-(cyclohexylmethyl)-N4-cyclopentylbenzene-1,4-disulfonamide]",1 to 30
9,"O=S(=O)(c1ccc(S(=O)(=O)N(Cc2ccc(Cl)cc2)C2CCCC2)cc1)N(CCN1CCNCC1)Cc1ccccc1 [Compound 10, N1-benzyl-N4-(4-chlorobenzyl)-N4-cyclopentyl-N1-(2-(piperazin-1-yl)ethyl)benzene-1,4-disulfonamide]",1 to 30
10,"O=S(=O)(c1ccc(S(=O)(=O)N(Cc2ccc(Cl)cc2)C2CCCC2)cc1)N(Cc1cnccn1)CC1CCNCC1 [Compound 11, N1-(4-chlorobenzyl)-N1-cyclopentyl-N4-(piperidin-4-ylmethyl)-N4-(pyrazin-2-ylmethyl)benzene-1,4-disulfonamide]",1 to 30
11,"O=S(=O)(c1ccc(S(=O)(=O)N(Cc2cnc(Cl)cn2)C2CCCC2)cc1)N(Cc1ccccc1)CC1CCNCC1 [Compound 12, N1-benzyl-N4-((5-chloropyrazin-2-yl)methyl)-N4-cyclopentyl-N1-(piperidin-4-ylmethyl)benzene-1,4-disulfonamide]",1 to 30
12,O=S(=O)(NCc1ccccc1)c1ccc(S(=O)(=O)N(Cc2ccc(Cl)cc2)C2CCCC2)cc1 [Compound 13],30 to 100
13,O=S(=O)(NCc1ccc(O)cc1)c1ccc(S(=O)(=O)N(Cc2ccc(Cl)cc2)C2CCCC2)cc1 [Compound 14],30 to 100
14,"O=S(=O)(c1ccc(S(=O)(=O)N(Cc2cccc(Br)c2)C2CCCC2)cc1)N(Cc1ccccc1)CC1CCNCC1 [Compound 17, N1-benzyl-N4-(3-bromobenzyl)-N4-cyclopentyl-N1-(piperidin-4-ylmethyl)benzene-1,4-disulfonamide]",30 to 100
15,"O=S(=O)(c1ccc(S(=O)(=O)N(Cc2ccccc2)CC2CCNCC2)cc1)N(Cc1ccccc1)CC1CCNCC1 [Compound 18, N1,N4-dibenzyl-N1,N4-bis(piperidin-4-ylmethyl)benzene-1,4-disulfonamide]",100 to 1000
16,"CNc1nccc(CN(CC2CCCCC2)S(=O)(=O)c2ccc(S(=O)(=O)N(Cc3ccc(Cl)cc3)C3CCCC3)cc2)n1 [Compound 20, N1-(4-chlorobenzyl)-N4-(cyclohexylmethyl)-N1-cyclopentyl-N4-((2-(methylamino)pyrimidin-4-yl)methyl)benzene-1,4-disulfonamide]",30 to 100
17,"COC(=O)c1ccc(CN(CC2CCNCC2)S(=O)(=O)c2ccc(S(=O)(=O)N(Cc3ccc(Cl)cc3)C3CCCC3)cc2)cc1N [Compound 23, methyl 2-amino-4-(((4-(N-(4-chlorobenzyl)-N-cyclopentylsulfamoyl)-N-(piperidin-4-ylmethyl)phenyl)sulfonamido)methyl)benzoate]",1 to 30
18,"CC(C)(C)c1cc(Br)cc(CN(C2CCCC2)S(=O)(=O)c2ccc(S(=O)(=O)N(Cc3ccccc3)CC3CCNCC3)cc2)c1 [Compound 24, N1-benzyl-N4-(3-bromo-5-(tert-butyl)benzyl)-N4-cyclopentyl-N1-(piperidin-4-ylmethyl)benzene-1,4-disulfonamide]",30 to 100
19,"O=S(=O)(c1ccc(S(=O)(=O)N(Cc2cc(Br)cc(C(F)(F)F)c2)C2CCCC2)cc1)N(Cc1ccccc1)CC1CCNCC1 [Compound 25, N1-benzyl-N4-(3-bromo-5-(trifluoromethyl)benzyl)-N4-cyclopentyl-N1-(piperidin-4-ylmethyl)benzene-1,4-disulfonamide]",100 to 1000
20,"O=S(=O)(c1ccc(S(=O)(=O)N(Cc2ccc(Cl)cc2)C2CCCC2)cc1)N(Cc1ccccc1)CC1CCCNC1 (stereo not shown) [Compound 26, N1-benzyl-N4-(4-chlorobenzyl)-N4-cyclopentyl-N1-(piperidin-3-ylmethyl)benzene-1,4-disulfonamide]",1 to 30

row,Compound,Kd [nM]
1,"O=S(=O)(c1ccc(S(=O)(=O)N(Cc2ccc(Cl)cc2)C2CCCC2)cc1)N(Cc1cncnc1)CC1CCNCC1 [Compound 27, N1-(4-chlorobenzyl)-N1-cyclopentyl-N4-(piperidin-4-ylmethyl)-N4-(pyrimidin-5-ylmethyl)benzene-1,4-disulfonamide]",1 to 30
2,CC(C)(C)[Si](C)(C)OCCN(CC1CCCCC1)S(=O)(=O)c1ccc(S(=O)(=O)N(Cc2ccc(Cl)cc2)C2CCCC2)cc1 [Compound 28],100 to 1000
3,CC(C)(C)[Si](C)(C)OCCCN(CC1CCCCC1)S(=O)(=O)c1ccc(S(=O)(=O)N(Cc2ccc(Cl)cc2)C2CCCC2)cc1 [Compound 29],100 to 1000
4,CC(C)(C)[Si](C)(C)OCCCCN(CC1CCCCC1)S(=O)(=O)c1ccc(S(=O)(=O)N(Cc2ccc(Cl)cc2)C2CCCC2)cc1 [Compound 30],100 to 1000
5,O=S(=O)(c1ccc(S(=O)(=O)N(Cc2ccc(Cl)cc2)C2CCCC2)cc1)N(CCO)CC1CCCCC1 [Compound 31],30 to 100
6,O=S(=O)(c1ccc(S(=O)(=O)N(Cc2ccc(Cl)cc2)C2CCCC2)cc1)N(CCCO)CC1CCCCC1 [Compound 32],30 to 100
7,O=S(=O)(c1ccc(S(=O)(=O)N(Cc2ccc(Cl)cc2)C2CCCC2)cc1)N(CCCCO)CC1CCCCC1 [Compound 33],100 to 1000
8,"O=S(=O)(c1ccc(S(=O)(=O)N(Cc2ccc(Cl)cc2)C2CCCC2)cc1)N(Cc1ccccc1Br)CC1CCCCC1 [Compound 34, N1-(2-bromobenzyl)-N4-(4-chlorobenzyl)-N1-(cyclohexylmethyl)-N4-cyclopentylbenzene-1,4-disulfonamide]",30 to 100
9,"O=S(=O)(c1ccc(S(=O)(=O)N(Cc2ccc(Cl)cc2)C2CCCC2)cc1)N(Cc1cccc(Br)c1)CC1CCCCC1 [Compound 35, N1-(3-bromobenzyl)-N4-(4-chlorobenzyl)-N1-(cyclohexylmethyl)-N4-cyclopentylbenzene-1,4-disulfonamide]",30 to 100
10,"O=S(=O)(c1ccc(S(=O)(=O)N(Cc2ccc(Cl)cc2)C2CCCC2)cc1)N(CC1CCCCC1)c1ccccc1Br [Compound 36, N1-(2-bromophenyl)-N4-(4-chlorobenzyl)-N1-(cyclohexylmethyl)-N4-cyclopentylbenzene-1,4-disulfonamide]",30 to 100
11,"O=S(=O)(c1ccc(S(=O)(=O)N(Cc2ccc(Cl)cc2)C2CCCC2)cc1)N(CC1CCCCC1)c1cc(C(F)(F)F)ccc1Br [Compound 37, N1-(2-bromo-5-(trifluoromethyl)phenyl)-N4-(4-chlorobenzyl)-N1-(cyclohexylmethyl)-N4-cyclopentylbenzene-1,4-disulfonamide]",30 to 100
12,O=CC1Cc2ccccc2N1S(=O)(=O)c1ccc(S(=O)(=O)N(Cc2ccc(Cl)cc2)C2CCCC2)cc1 (stereo not shown) [Compound 38],100 to 1000
13,O=S(=O)(NCC1CCOCC1)c1ccc(S(=O)(=O)N(Cc2ccc(Cl)cc2)C2CCCC2)cc1 [Compound 39],30 to 100
14,"CCOC(=O)c1ccccc1CN(CC1CCOCC1)S(=O)(=O)c1ccc(S(=O)(=O)N(Cc2ccc(Cl)cc2)C2CCCC2)cc1 [Compound 40, ethyl 2-(((4-(N-(4-chlorobenzyl)-N-cyclopentylsulfamoyl)-N-((tetrahydro-2H-pyran-4-yl)methyl)phenyl)sulfonamido)methyl)benzoate]",100 to 1000
15,Cc1ccsc1N(Cc1ccccn1)S(=O)(=O)c1ccc(S(=O)(=O)N(Cc2ccccn2)c2sccc2C)cc1 [Compound 41],> 1000
16,Cc1ccc(CN(C2CCCC2)S(=O)(=O)c2ccc(S(=O)(=O)N(Cc3ccccn3)c3sccc3C)cc2)cc1 [Compound 42],100 to 1000
17,Cc1ccc(CN(C2CCCC2)S(=O)(=O)c2ccc(S(=O)(=O)N(Cc3ccccn3)c3sccc3C)cc2)cc1Cl [Compound 43],100 to 1000
18,"O=S(=O)(NCC1CCNCC1)c1ccc(S(=O)(=O)N(Cc2ccc(Cl)cc2)C2CCCC2)cc1 [Compound 45, N1-(4-chlorobenzyl)-N1-cyclopentyl-N4-(piperidin-4-ylmethyl)benzene-1,4-disulfonamide]",1 to 30
19,"CCN(CC)S(=O)(=O)c1ccc(S(=O)(=O)N(Cc2ccccn2)Cc2ccco2)cc1 [Compound 46, N1,N1-diethyl-N4-(furan-2-ylmethyl)-N4-(pyridin-2-ylmethyl)benzene-1,4-disulfonamide]",100 to 1000
